Source: ChEMBL document CHEMBL3885881, “DrugMatrix”

Species on record: Rattus norvegicus
Assay: DrugMatrix - Regimen: Daily Repeat
Type: toxicity, organism-based, Sprague-Dawley
Design: regimen Daily Repeat, gender Male, age 6-8 weeks
Conditions: in vivo, po, route oral GAVAGE, vehicle 100 % WATER; for ABSOLUTE BASOPHIL / ABSOLUTE EOSINOPHIL / ABSOLUTE LYMPHOCYTE / ABSOLUTE MONOCYTE / ABSOLUTE SEGMENTED NEUTROPHIL / BASOPHIL / EOSINOPHIL / ERYTHROCYTE COUNT / HEMATOCRIT / HEMOGLOBIN / LEUKOCYTE COUNT / LYMPHOCYTE / MEAN CORPUSCULAR HEMOGLOBIN / MEAN CORPUSCULAR HEMOGLOBIN CONCENTRATION / MEAN CORPUSCULAR VOLUME / MONOCYTE / NEUTROPHIL / NUCLEATED RED BLOOD CELLS / PLATELET COUNT: tissue Blood; for ALANINE AMINOTRANSFERASE / ALBUMIN / ALKALINE PHOSPHATASE / ASPARTATE AMINOTRANSFERASE / BLOOD UREA NITROGEN / CARBON DIOXIDE / CHLORIDE / CHOLESTEROL / CREATINE PHOSPHOKINASE / CREATININE / GLUCOSE / LACTATE DEHYDROGENASE / LIPASE / PHOSPHORUS / SODIUM / TOTAL BILIRUBIN / TOTAL PROTEIN / URIC ACID: tissue Plasma
[1] = 0 mg/kg, 72 h, dose level Control, time 3 day
[2] = 0 mg/kg, 120 h, dose level Control, time 5 day
[3] = 100 mg/kg, 72 h, dose level Low, time 3 day

CCN(CC)C(=S)SSC(=S)N(CC)CC
ABSOLUTE BASOPHIL [1]: 0 CELLS/uL
ABSOLUTE EOSINOPHIL [1]: 58.83 CELLS/uL
ABSOLUTE LYMPHOCYTE [1]: 11823.5 CELLS/uL
ABSOLUTE MONOCYTE [1]: 169 CELLS/uL
ABSOLUTE SEGMENTED NEUTROPHIL [1]: 815.33 CELLS/uL
BASOPHIL [1]: 0%
EOSINOPHIL [1]: 0.5%
ERYTHROCYTE COUNT [1]: 5.52 x10E6/uL
HEMATOCRIT [1]: 35.77%
HEMOGLOBIN [1]: 14.28 G/DL
LEUKOCYTE COUNT [1]: 12.87 x10E3/uL
LYMPHOCYTE [1]: 91.67%
MEAN CORPUSCULAR HEMOGLOBIN [1]: 25.92 pg
MEAN CORPUSCULAR HEMOGLOBIN CONCENTRATION [1]: 39.95 G/DL
MEAN CORPUSCULAR VOLUME [1]: 64.85 fL
MONOCYTE [1]: 1.33%
NEUTROPHIL [1]: 6.5%
NUCLEATED RED BLOOD CELLS [1]: 0 /100WBC
PLATELET COUNT [1]: 1246.17 x10E3/uL
ALANINE AMINOTRANSFERASE [1]: 66 u/L
ALBUMIN [1]: 4.25 G/DL
ALKALINE PHOSPHATASE [1]: 416 u/L
ASPARTATE AMINOTRANSFERASE [1]: 106.17 u/L
BLOOD UREA NITROGEN [1]: 12.67 mg/dL
CARBON DIOXIDE [1]: 31.83 mmol/L
CHLORIDE [1]: 102.5 MEQ/L
CHOLESTEROL [1]: 69 mg/dL
CREATINE PHOSPHOKINASE [1]: 601.83 u/L
CREATININE [1]: 0.18 mg/dL
GLUCOSE [1]: 154.5 mg/dL
LACTATE DEHYDROGENASE [1]: 301.83 u/L
LIPASE [1]: 11.17 u/L
PHOSPHORUS [1]: 12.08 mg/dL
SODIUM [1]: 145.2 MEQ/L
TOTAL BILIRUBIN [1]: 0.17 mg/dL
TOTAL PROTEIN [1]: 6.1 G/DL
URIC ACID [1]: 1.57 mg/dL
ABSOLUTE BASOPHIL [2]: 0 CELLS/uL
ABSOLUTE EOSINOPHIL [2]: 19.33 CELLS/uL
ABSOLUTE LYMPHOCYTE [2]: 12577.83 CELLS/uL
ABSOLUTE MONOCYTE [2]: 106.33 CELLS/uL
ABSOLUTE SEGMENTED NEUTROPHIL [2]: 896.5 CELLS/uL
BASOPHIL [2]: 0%
EOSINOPHIL [2]: 0.17%
ERYTHROCYTE COUNT [2]: 5.84 x10E6/uL
HEMATOCRIT [2]: 36.88%
HEMOGLOBIN [2]: 14.48 G/DL
LEUKOCYTE COUNT [2]: 13.6 x10E3/uL
LYMPHOCYTE [2]: 92.17%
MEAN CORPUSCULAR HEMOGLOBIN [2]: 24.85 pg
MEAN CORPUSCULAR HEMOGLOBIN CONCENTRATION [2]: 39.3 G/DL
MEAN CORPUSCULAR VOLUME [2]: 63.23 fL
MONOCYTE [2]: 0.83%
NEUTROPHIL [2]: 6.83%
NUCLEATED RED BLOOD CELLS [2]: 0 /100WBC
PLATELET COUNT [2]: 1223.5 x10E3/uL
ALANINE AMINOTRANSFERASE [2]: 55.33 u/L
ALBUMIN [2]: 4.08 G/DL
ALKALINE PHOSPHATASE [2]: 355.5 u/L
ASPARTATE AMINOTRANSFERASE [2]: 87.67 u/L
BLOOD UREA NITROGEN [2]: 15.33 mg/dL
CARBON DIOXIDE [2]: 33.83 mmol/L
CHLORIDE [2]: 99.67 MEQ/L
CHOLESTEROL [2]: 72.17 mg/dL
CREATINE PHOSPHOKINASE [2]: 268.33 u/L
CREATININE [2]: 0.15 mg/dL
GLUCOSE [2]: 152.5 mg/dL
LACTATE DEHYDROGENASE [2]: 212.67 u/L
LIPASE [2]: 10.83 u/L
PHOSPHORUS [2]: 11.65 mg/dL
SODIUM [2]: 142.43 MEQ/L
TOTAL BILIRUBIN [2]: 0.23 mg/dL
TOTAL PROTEIN [2]: 6.07 G/DL
URIC ACID [2]: 1.7 mg/dL
ABSOLUTE BASOPHIL [3]: 0 CELLS/uL
ABSOLUTE EOSINOPHIL [3]: 157.33 CELLS/uL
ABSOLUTE LYMPHOCYTE [3]: 16865.67 CELLS/uL
ABSOLUTE MONOCYTE [3]: 329 CELLS/uL
ABSOLUTE SEGMENTED NEUTROPHIL [3]: 2381.33 CELLS/uL
BASOPHIL [3]: 0%
EOSINOPHIL [3]: 0.67%
ERYTHROCYTE COUNT [3]: 5.56 x10E6/uL
HEMATOCRIT [3]: 35.37%
HEMOGLOBIN [3]: 14.23 G/DL
LEUKOCYTE COUNT [3]: 19.73 x10E3/uL
LYMPHOCYTE [3]: 85.67%
MEAN CORPUSCULAR HEMOGLOBIN [3]: 25.63 pg
MEAN CORPUSCULAR HEMOGLOBIN CONCENTRATION [3]: 40.27 G/DL
MEAN CORPUSCULAR VOLUME [3]: 63.63 fL
MONOCYTE [3]: 1.67%
NEUTROPHIL [3]: 12%
NUCLEATED RED BLOOD CELLS [3]: 0 /100WBC
PLATELET COUNT [3]: 1201.33 x10E3/uL
ALANINE AMINOTRANSFERASE [3]: 56 u/L
ALBUMIN [3]: 3.87 G/DL
ALKALINE PHOSPHATASE [3]: 264.33 u/L
ASPARTATE AMINOTRANSFERASE [3]: 73.33 u/L
BLOOD UREA NITROGEN [3]: 11.67 mg/dL
CARBON DIOXIDE [3]: 31.67 mmol/L
CHLORIDE [3]: 102.33 MEQ/L
CHOLESTEROL [3]: 84.33 mg/dL
CREATINE PHOSPHOKINASE [3]: 223.33 u/L
CREATININE [3]: 0.28 mg/dL
GLUCOSE [3]: 140.67 mg/dL
LACTATE DEHYDROGENASE [3]: 124 u/L
LIPASE [3]: 14.33 u/L
PHOSPHORUS [3]: 11.63 mg/dL
SODIUM [3]: 144.57 MEQ/L
TOTAL BILIRUBIN [3]: 0.1 mg/dL
TOTAL PROTEIN [3]: 5.7 G/DL
URIC ACID [3]: 1.23 mg/dL
